# Experimental data as given in publication PMC12820960, “Lactucopicrin: A Sesquiterpene Lactone with Anti-Inflammatory Activity Modulates the Crosstalk between NF-kB and AHR Pathways” (Journal of Medicinal Chemistry, 2025).
# Target: T1, Aryl Hydrocarbon Receptor (AHR) (Homo sapiens, UniProt P35869)
# T1 sequence (P35869 11-848): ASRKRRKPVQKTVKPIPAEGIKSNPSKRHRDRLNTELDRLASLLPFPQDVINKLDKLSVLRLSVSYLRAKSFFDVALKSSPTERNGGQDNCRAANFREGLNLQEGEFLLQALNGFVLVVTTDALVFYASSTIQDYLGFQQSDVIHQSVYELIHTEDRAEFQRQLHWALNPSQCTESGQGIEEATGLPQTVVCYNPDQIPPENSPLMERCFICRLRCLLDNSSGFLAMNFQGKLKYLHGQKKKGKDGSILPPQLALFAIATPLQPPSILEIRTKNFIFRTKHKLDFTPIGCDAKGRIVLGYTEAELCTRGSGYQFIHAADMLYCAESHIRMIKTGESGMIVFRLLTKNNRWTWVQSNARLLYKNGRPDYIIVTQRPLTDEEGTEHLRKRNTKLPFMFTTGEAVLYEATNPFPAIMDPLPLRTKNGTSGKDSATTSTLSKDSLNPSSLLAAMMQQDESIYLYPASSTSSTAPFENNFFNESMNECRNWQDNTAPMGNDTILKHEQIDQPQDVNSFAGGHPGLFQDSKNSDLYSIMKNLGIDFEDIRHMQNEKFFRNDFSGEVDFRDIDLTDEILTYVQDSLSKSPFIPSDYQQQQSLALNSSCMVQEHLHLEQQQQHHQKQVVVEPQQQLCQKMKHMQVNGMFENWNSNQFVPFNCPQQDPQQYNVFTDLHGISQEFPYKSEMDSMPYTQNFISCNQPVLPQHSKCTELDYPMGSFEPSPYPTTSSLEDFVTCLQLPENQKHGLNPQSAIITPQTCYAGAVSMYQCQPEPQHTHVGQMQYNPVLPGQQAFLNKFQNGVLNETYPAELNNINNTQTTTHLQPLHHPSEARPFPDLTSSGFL
# Test: AHR luciferase reporter activation ([…]) in THP-1, Caco-2 and EA.hy926 cells
# Assay type: cell-based
structure (smiles),measurement,value
O=C1/C(=C2\Nc3ccccc3C2=O)Nc2ccccc21 [indigo],"AHR luciferase reporter activation (1 uM) in THP-1, Caco-2 and EA.hy926 cells","AHR activation in THP-1 observed upon exposure to indigo, a known AHR agonist"
